Where two headings read alike, the source gives them in different places.
Target: human histamine H3 receptor (Homo sapiens, UniProt Q9Y5N1)
Assay: H3 GTPγS assay (SPA method), histamine H3 in vitro assay
Type: biochemical
Description: Briefly, cells expressing the human histamine H3 receptor were homogenized in 15 mM Tris-HCl pH 7.5, 2 mM MgCl2, 0.3 mM EDTA, and 1 mM EGTA. […] Membranes were frozen in liquid nitrogen until use. On the day of the assay, membranes were thawed and diluted in assay buffer (20 mM HEPES pH 7.4, 100 mM NaCl, 10 μg/ml saponin, 1 mM MgCl2) to give 500 μg/ml and mixed (v/v) with GDP in assay buffer for a final GDP concentration of 10 μM and incubated on ice for at least […]. PVT-WGA beads (Amersham, RPNQ001) were diluted in assay buffer at 50 mg/mL and mixed with GTPγ[^35S] (Amersham, SJ1308) diluted in assay buffer to give ˜25,000 dpm/10 μL and mixed vol/vol just before the start of the reaction.
For antagonists testing, 10 μL of a reference agonist ([…]) instead of 10 μL buffer was added at a concentration corresponding to the EC80 (30 nM).
The compounds provided herein were tested in the histamine H3 in vitro assay. In one embodiment, the respective HCl salts of the compounds provided herein were prepared using standard chemical procedures and tested in the histamine H3 in vitro assay.

[1] = membranes of cells expressing human H3, GTPγ[35S] SPA, antagonist testing with reference agonist at EC80 (30 nM), in one embodiment HCl salts tested, read-out: Potency (functional potency as indicated by IC50)

Sequence of human histamine H3 receptor (Q9Y5N1 whole entry): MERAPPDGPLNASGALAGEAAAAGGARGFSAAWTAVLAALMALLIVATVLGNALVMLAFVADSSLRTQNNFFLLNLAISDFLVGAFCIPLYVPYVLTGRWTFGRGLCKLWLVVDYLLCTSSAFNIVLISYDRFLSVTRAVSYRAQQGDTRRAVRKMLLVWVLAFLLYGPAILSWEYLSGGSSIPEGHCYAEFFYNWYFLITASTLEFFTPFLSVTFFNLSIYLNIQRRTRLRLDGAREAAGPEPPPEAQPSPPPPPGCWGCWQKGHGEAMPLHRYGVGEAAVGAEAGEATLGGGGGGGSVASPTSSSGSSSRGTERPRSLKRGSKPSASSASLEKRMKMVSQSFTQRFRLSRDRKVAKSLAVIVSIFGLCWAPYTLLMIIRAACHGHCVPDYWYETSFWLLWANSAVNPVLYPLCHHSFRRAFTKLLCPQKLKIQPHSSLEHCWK

SMILES	IC50 [nM]	IC50 [1] [nM]
Brc1ccc2c(c1)nc1n2CC2CCCN2CC1 (stereo not shown) [Compound 12, 9-bromo-2,3,5,6,13,13a-hexahydro-1H-benzo[4,5]imidazo[1,2-d]pyrrolo[1,2-a][1,4]diazepine]	> 1000	
N#Cc1ccc(-c2ccc3c(c2)nc2n3CC3CCC(C2)N3C2CCC2)cc1 (single isomer, unassigned) [Compound 44]		< 10
CC1Cn2c(nc3cc(Br)ccc32)CCN1C1CCC1 (stereo not shown) [Compound 42, 8-bromo-3-cyclobutyl-2-methyl-2,3,4,5-tetrahydro-1H-benzo[4,5]imidazo[1,2-d][1,4]diazepine]		< 1000
c1cn2cc(-c3ccc4c(c3)nc3n4CC4CC3CN4C3CCC3)ccc2n1 (stereo not shown) [Compound 37, 3-cyclobutyl-8-(imidazo[1,2-a]pyridin-6-yl)-2,3,4,5-tetrahydro-1H-2,5-methanobenzo[4,5]imidazo[1,2-d][1,4]diazepine]		> 1000
c1cn2cc(-c3ccc4c(c3)nc3n4CCN4CCCC[C@H]4C3)ccc2n1 [Compound 49, (S)-11-(imidazo[1,2-a]pyridin-6-yl)-1,2,3,4,6,7,14,14a-octahydrobenzo[4,5]imidazo[1,2-d]pyrido[2,1-g][1,4]diazepine]		< 100
N#Cc1ccc(-c2ccc3c(c2)nc2n3CCCN3CCCC3C2)cc1 (stereo not shown) [Compound 80, 4-(1,2,3,5,6,7,14,14a-octahydrobenzo[4,5]imidazo[1,2-a]pyrrolo[2,1-d][1,5]diazocin-11-yl)benzonitrile]		< 10
NCc1ccc(-c2ccc3c(c2)nc2n3CC3CCC(C2)N3C2CCC2)cc1 (stereo not shown) [Compound 23, (4-(13-cyclobutyl-6,7,8,9,10,11-hexahydro-7,10-epiminobenzo[4,5]imidazo[1,2-a]azocin-3-yl)phenyl)-methanamine]	< 10	
c1cn2cc(-c3ccc4c(c3)nc3n4CCCN4CCCCC4C3)ccc2n1 (single isomer, unassigned) [Compound 70]		< 10
c1cc2c(cc1CN1CCOCC1)nc1n2CCN2CCCC2C1 (stereo not shown) [Compound 75, 4-((2,3,5,6,13,13a-hexahydro-1H-benzo[4,5]imidazo[,2-d]pyrrolo[2,1-g][1,4]diazepin-10-yl)methyl)morpholine]		< 10
c1ccc2c(c1)ncn2-c1ccc2c(c1)nc1n2CCN(C2CCC2)C1 [Compound 55, 8-(1H-benzo[d]imidazol-1-yl)-2-cyclobutyl-1,2,3,4-tetrahydrobenzo[4,5]imidazo[1,2-a]pyrazine]		< 1000
N#Cc1ccc(-c2ccc3c(c2)nc2n3C3CC(C2)N(C2CCC2)C3)cc1 (stereo not shown) [Compound 33, 4-(3-cyclobutyl-2,3,4,5-tetrahydro-1H-1,4-methanobenzo[4,5]imidazo[1,2-d][1,4]diazepin-8-yl)benzonitrile]		< 1000
c1coc(-c2ccc3c(c2)nc2n3CC3CCCN3CC2)c1 (stereo not shown) [Compound 14, 9-(furan-2-yl)-2,3,5,6,13,13a-hexahydro-1H-benzo[4,5]imidazo[1,2-d]pyrrolo[1,2-a][1,4]diazepine]		> 1000
c1cc2c(cc1CN1CCOCC1)nc1n2CCN2CCCCC2C1 (single isomer, unassigned) [Compound 51]		< 100
c1cc2c(cc1CN1CCOCC1)nc1n2CC2CC1CN2C1CCC1 (stereo not shown) [Compound 39, 4-((3-cyclobutyl-2,3,4,5-tetrahydro-1H-2,5-methanobenzo[4,5]imidazo[1,2-d][1,7]diazepin-8-yl)methyl)morpholine]		> 1000
CC1Cc2nc3cc(-c4ccc(C#N)cc4)ccc3n2CCN1C1CCC1 (stereo not shown) [Compound 41, 4-(3-cyclobutyl-4-methyl-2,3,4,5-tetrahydro-1H-benzo[4,5]imidazo[1,2-d][1,4]diazepin-8-yl)benzonitrile]		< 10
CN1CCN(c2ccc3c(c2)nc2n3CCN3CCCCC3C2)CC1 (stereo not shown) [Compound 11, 11-(4-methylpiperazin-1-yl)-1,2,3,4,6,7,14,14a-octahydrobenzo[4,5]imidazo[1,2-d]pyrido[2,1-g][1,4]diazepine]		< 10

Source: patent US20110065694A1 (priority 2009, published 2011)
